Test results: patent US20190030009A1, “COMPOUNDS AND COMPOSITIONS FOR THE TREATMENT OF CRYPTOSPORIDIOSIS” (Novartis AG, priority 2016, published 2019)

Assays:
Cryptosporidium parvum = assay: Cytopathic effect (CPE) based assay, C. parvum infected HCT-8 cells; conditions: HCT-8 host cell viability (CellTiter-Glo), 48 hours treatment, read-out: Cp CPE EC50
Experimental: Human ileocecal colorectal adenocarcinoma cells (HCT-8 [HRT-18] ATCC, CCL-34) were maintained in T-175 flasks (Corning, 431080) in complete growth medium (RPMI-1640 medium (Gibco, 11875) supplemented with 10% heat-inactivated horse serum (Gibco, 26050), 1×MEM non-essential amino acids (Gibco, 11140), 10 mM HEPES (Gibco, 15630), 100 units/mL penicillin, and 100 units/mL streptomycin) at 37° C. and 5% CO2 in a humidified incubator. Cultures were passaged twice weekly using 10 mL of 1×Phosphate-Buffered Saline (PBS) without Ca^2+ and Mg^2+ (Gibco, 20012) for washing and 3-5 mL per T-175 flask of TrypLE Express Enzyme (Gibco, 12604) for dissociation of adherent cells.
Cryptosporidium parvum oocysts purchased from the Sterling Laboratory, University of Arizona (Iowa isolate) were purified from infected calf feces using discontinuous sucrose and cesium chloride centrifugation gradients and stored in PBS solution containing 0.01% Tween 20, 100 units/mL penicillin and 100 units/mL gentamicin.
Excystation and infection protocols were developed following established methods with some modifications (Gut & Nelson, 1999, Upton et aL, 1995, Bessoff et aL, 2013). Briefly, oocysts were primed in 1 mL of 10 mM hydrochloric acid in 1× Hank's Balanced Salt Solution (HBSS) (Gibco, 14025) for 10 minutes with agitation at 1000 rpm, 37° C. on an Eppendorf thermomixer, then washed twice with 1 mL of room temperature non-acidic 1× HBSS by centrifugation at 13,000 rpm for 3 minutes at 25° C. Primed oocysts were further excysted at a concentration of 1×10^6 oocysts/μL in parasite infection medium consisting of a pre-warmed and pre-gassed 1:1 formulation of Leibovitz's L-15 medium (Gibco, 11415) and UltraCULTURE medium (Lonza, 12-725F) supplemented with 2 mM sodium taurocholate (Sigma, 86339-1), 10% heat-inactivated horse serum, and 200 μM L-ascorbic acid (Sigma, 95210) at 25° C. for 10 minutes. HCT-8 monolayer cells were infected with excysted cryptosporidium at a specified multiplicity of infection (MOI). All dilutions for subsequent assays were performed in parasite infection medium without sodium taurocholate. Pre-excysted oocysts were enumerated microscopically using a C-Chip disposable hemocytometer (NanoEnTek, DHC-N01).
Compound powders were dissolved in neat DMSO (Fisher, D4121) to 10 mM and stored at 4° C. prior to dilution into source plates. Dilutions were carried out using a Microlab STAR liquid handler (Hamilton) to obtain compound source plates containing the ten-point or eight-point three fold dilutions starting from 10 mM in duplicates. Source plates were stored at 4° C. prior to spotting into assay plates. Before administration, all compound source plates were equilibrated to room temperature. A specified volume of compounds from source plate were spotted to assay plate using an Echo Acoustic liquid handler (LABCYTE, 550) so that the final DMSO concentration was less than 0.5%. Each assay plate a specified number of DMSO-treated negative control wells and a well-studied potent active compound at 100 nM as positive control. As a quality control, all positive and negative-control wells were used to calculate a Z′-value and signal to noise ratio (S:N) for each plate.
Cryptosporidium spp are obligate-intracellular parasites that infect intestinal epithelial cells and the host cell is killed upon parasite egress. […] The loss of epithelial cells is due to both rapid parasite invasion/multiplication/egress and also pro-inflammatory immune response (Adams et al., 1994, Griffiths et al., 1994). We have observed a consistent cytopathic effect (CPE) in HCT-8 cells with C. spp infection the loss of viability of the host cells using CellTiter-Glo reagent.
Confluent HCT-8 cells in T-175 flasks were directly infected with excysted oocysts at an MOI (host to parasite) of 1:2 for C. parvum and 1:4 for C. hominis. The number of host-cells is determined using a NucleoCounter (Chemometec, NC-100) in a control flask. […]

[1] = Cytotoxicity against HepG2; format: cell-based; conditions: human, HepG2 cells (ATCC HB-8065), 5 days exposure
Experimental: Cytotoxicity against HepG2 (ATCC# HB-8065), a human liver cancer cell line, was determined as previously described earlier (Manjunatha et al., 2015). Briefly, cells were seeded at a density of 10^5 cells per well, incubated at 37° C. for 24 h and exposed to two-fold serially-diluted compounds for 5 days. Cell viability was monitored using the Cell Proliferation Kit II (Invitrogen). The cytotoxicity values of selected compounds are reported in the fifth column [HepG2 CC50 (μM)] of Table II.

Compound	EC50 (Cryptosporidium parvum)	CC50 at 5 days [1]
CNC(=O)c1ccc(-c2cnn3ccc(C(=O)N(C)c4ccc(OC)nc4)cc23)cc1 [Example 122]	> 20 µM	15.8 µM
CN(C(=O)c1ccn2ncc(-c3ccc4c(cnn4C)c3)c2c1)c1ccc(C#N)cc1 [Example 17]	0.058 µM	2.51 µM
CNC(=O)c1ccc(-c2cnn3ccc(C(=O)N(c4ccc(C#N)cn4)C4CCC4)cc23)nc1 [Example 155]	1.01 µM	> 50 µM
CN(C)CCNC(=O)c1ccc(-c2cnn3ccc(C(=O)N(C)c4ccc(C#N)cn4)cc23)cc1 [Example 115]	3.02 µM	2.7 µM
CNC(=O)c1ccc(-c2cnn3ccc(C(=O)Nc4ccc(C#N)cn4)cc23)cc1 [Example 106]	> 20 µM	> 50 µM
Cc1ccc(N(C)C(C)c2ccn3ncc(-c4ccc(C(N)=O)cc4)c3c2)nc1 (stereo not drawn) [Example 65]	5.12 µM	2.28 µM
CN(C(=O)c1ccn2ncc(-c3ccc(C(F)(F)F)cc3)c2c1)c1ccc(C#N)cn1 [Example 13]	1.54 µM	> 50 µM
NC(=O)c1ccc(-c2cnn3ccc(C(=O)N(c4ccc(F)c(F)c4)C4CC4)cc23)cc1 [Example 135]	0.279 µM	31.1 µM
CNC(=O)c1ccc(-c2cnn3ccc(C(=O)N(c4ccc(F)cn4)C(C)C)cc23)cc1 [Example 151]	2.31 µM	29.2 µM
CNC(=O)c1ccc(-c2cnn3ccc(C(=O)N(c4ccc(Cl)cc4)C4CC4)cc23)cc1 [Example 116]	0.007 µM	3.01 µM
CNC(=O)c1ccc(-c2cnn3ccc(C(=O)N(C)c4ccc(C#N)cn4)cc23)cc1 [Example 75]	0.066 µM	19.7 µM
CNC(=O)c1ccc(-c2cnn3ccc(C(=O)N(C)c4ccc(OCCN)cn4)cc23)cc1 [Example 111]	> 20 µM	> 50 µM
N#Cc1ccc(N(C(=O)c2ccn3ncc(-c4ccc(C(N)=O)nc4)c3c2)C2CC2)cc1 [Example 138]	0.49 µM	8.1 µM
CNC(=O)c1ccc(-c2cnn3ccc(C(=O)N(c4ccc(C#N)cc4)C4CC4)cc23)cc1 [Example 118]	0.026 µM	5.9 µM
CNC(=O)c1ccc(-c2cnn3ccc(C(=O)N(c4ccc(C#N)cn4)C4CC4)cc23)cc1 [Example 93]	0.152 µM	28.1 µM
CN(C(=O)c1ccn2ncc(-c3ccc(C(=O)NCCO)cc3)c2c1)c1ccc(C#N)cn1 [Example 102]	0.399 µM	38.5 µM
CN(C(=O)c1ccn2ncc(-c3ccc(C(=O)O)cc3)c2c1)c1ccc(C#N)cn1 [Example 101]	15.2 µM	> 50 µM
CNC(=O)c1ccc(-c2cnn3ccc(C(=O)N(c4ccc(C#N)cc4)C(C)C)cc23)cn1 [Example 146]	0.329 µM	32.1 µM
CNC(=O)c1ccc(-c2cnn3ccc(C(=O)N(c4ccc(C#N)cc4)C4CCC4)cc23)cn1 [Example 145]	0.417 µM	16.8 µM
CCN(C(=O)c1ccn2ncc(-c3ccc(C(=O)NC)nc3)c2c1)c1ccc(F)cn1 [Example 159]	5.37 µM	9.81 µM
CNC(=O)c1ccc(-c2cnn3ccc(C(=O)N(c4ccc(C#N)cn4)C(C)C)cc23)nc1 [Example 154]	0.964 µM	45.7 µM
CN(C(=O)c1ccn2ncc(-c3ccc(C(N)=O)cc3)c2c1)c1ccc(F)cc1 [Example 20]	0.105 µM	5.42 µM
CN(C(=O)c1ccn2ncc(-c3cnc(Cl)c(N)c3)c2c1)c1ccc(C#N)cn1 [Example 98]	2.21 µM	10.2 µM

Compound	EC50 (Cryptosporidium parvum)	CC50 at 5 days [1]
N#Cc1ccc(N(C(=O)c2ccn3ncc(-c4ccc(C(N)=O)cc4)c3c2)C2CC2)cc1 [Example 134]	0.042 µM	7.24 µM
CCN(C(=O)c1ccn2ncc(-c3ccc(S(C)(=O)=O)cc3)c2c1)c1ccc(C#N)cn1 [Example 158]	3.75 µM	23 µM
CN(C(=O)c1ccn2ncc(-c3ccc(C(N)=O)cc3)c2c1)c1ccc(Cl)cc1 [Example 100]	0.021 µM	13.3 µM
CNC(=O)c1ccc(-c2cnn3ccc(C(=O)N(CCO)c4ccc(C#N)cc4)cc23)cc1 [Example 110]	> 20 µM	23.8 µM
CNC(=O)c1ccc(-c2cnn3ccc(C(=O)N(C)c4ccc(F)cc4)cc23)cc1 [Example 64]	0.143 µM	4.84 µM
CNC(=O)c1ccc(-c2cnn3ccc(C(=O)N(c4ccc(C#N)cc4)C4CC4)cc23)nc1 [Example 141]	0.344 µM	20.8 µM
CNC(=O)c1ccc(-c2cnn3ccc(C(=O)N(c4ccc(F)cn4)C(C)C)cc23)cn1 [Example 156]	15.6 µM	> 50 µM
CNC(=O)c1ccc(-c2cnn3ccc(C(=O)N(C)c4ccc(Cl)cc4)cc23)cc1 [Example 99]	0.018 µM	6.51 µM
CNC(=O)c1ccc(-c2cnn3ccc(C(=O)N(c4ccc(C(F)(F)F)cn4)C(C)C)cc23)cn1 [Example 152]	0.456 µM	14.9 µM
CN(C(=O)c1ccn2ncc(-c3ccc(C(=O)NC4CCNCC4)cc3)c2c1)c1ccc(C#N)cn1 [Example 113]	19.4 µM	2.67 µM
CNC(=O)c1ccc(-c2cnn3ccc(C(=O)N(c4ccc(F)cn4)C4CC4)cc23)cc1 [Example 125]	0.709 µM	25.5 µM
CC1COc2cc(F)ccc2N1C(=O)c1ccn2ncc(-c3ccc(C(N)=O)cc3)c2c1 (stereo not drawn) [Example 72]	1.4 µM	5.42 µM
CNC(=O)c1ccc(-c2cnn3ccc(C(=O)N(c4ccc(F)c(F)c4)C4CC4)cc23)cc1 [Example 130]	0.235 µM	> 50 µM
CNC(=O)c1ccc(-c2cnn3ccc(C(=O)N(c4ccc(Cl)cc4)C4CC4)cc23)cn1 [Example 143]	0.079 µM	17.5 µM
CN(C(=O)c1ccn2ncc(-c3ccc(N)nc3)c2c1)c1ccc(C#N)cc1 [Example 41]	0.097 µM	24.1 µM
CN(C(=O)c1ccn2ncc(-c3ccnc(N)c3)c2c1)c1ccc(C#N)cn1 [Example 108]	4.94 µM	14.2 µM
CNC(=O)c1ccc(-c2cnn3ccc(C(=O)N(c4ccc(C#N)cn4)C4CC4)cc23)nc1 [Example 133]	2.18 µM	20.9 µM
N#Cc1ccc(N(C2CC2)S(=O)(=O)c2ccn3ncc(-c4ccc(C(N)=O)cc4)c3c2)nc1 [Example 165]	0.607 µM	6.37 µM
CNC(=O)c1ccc(-c2cnn3ccc(C(=O)N(C)c4ccc(Cl)cc4)cc23)cn1 [Example 109]	0.129 µM	16.9 µM
CNC(=O)c1ccc(-c2cnn3ccc(N(C(=O)c4ccc(C#N)cn4)C4CC4)cc23)cc1 [Example 147]	> 20 µM	32.7 µM
CNC(=O)c1ccc(-c2cnn3ccc(C(=O)N(c4ccc(C)cn4)C4CC4)cc23)cc1 [Example 136]	0.43 µM	6.32 µM
CNC(=O)c1ccc(-c2cnn3ccc(C(=O)N(c4ccc(C(=O)O)cn4)C4CC4)cc23)cc1 [Example 128]	> 20 µM	> 50 µM
